Assay results from EP0559893A1, “XANTHINE DERIVATIVE” (priority 1990, dated 1992).

What was measured:
calvaria = test: Inhibitory effect on bone absorption (PTH-stimulated calcium release from cultured calvaria); format: cell-based, mouse; settings: test compound 10^-4 M, PTH 10^-8 M; for inhibition at 100 µM: Mus musculus, bone absorption, 96 hours, read-out: Inhibition Rate (%); for Ca Concentration (mg/dl) (n = 6, mean +/- S.E.M.): culture collected after 96 hours; for bone absorption by PTH (result in words): Duncan's test
Procedure: The calvaria was excised from a newborn dd mouse (5 to 6 days old) under sterile conditions. The calvaria was washed with a modified Dulbecco phosphate buffer physiological saline solution containing neither calcium nor magnesium (a product of Gibco Oriental), and divided into two parts along the center suture.
The culture medium was renewed 48 hours after the start of culturing. For determining the amount of calcium liberated from the bone by the action of PTH (bone absorption), the calcium content in the culture as collected after 96 hours of culturing was measured. The calcium concentration in the culture was measured with Calcium C Test Wako (manufactured by Wako Pure Chemical Industries, Ltd.). The bone absorption rate was calculated using the following equation. The test of significance of the inhibitory effect on bone absorption was performed by the Duncan's multi-weight comparative test. Inhibition rate (%) = [(CP - CD )/(CP - C₀)] × 100 [formula] CD indicates the total calcium concentration in the culture treated with both the test compound and PTH; CP indicates the total calcium concentration in the culture treated with only PTH (control); and C₀ indicates the total calcium concentration in the culture containing neither the test compound nor PTH.

dd male mice = test: Acute toxicity test; format: in vivo; settings: oral administration; mortality observed 7 days after the administration
Source text: Three dd male mice having a weight of 20 ± 1 g were used for one group. A test compound was orally administered to the mice.
The mortality was observed 7 days after the administration to determine the minimum lethal dose (MLD).

ddY male mice = test: Mouse locomotor activity; format: in vivo; settings: po, enhancement of locomotor activity, measured for 3 hours after administration, read-out: Minimum Effective Dose (mg/kg, p.o.)
Procedure: Five ddY male mice having a weight of 19 to 21 g were used for one group. A test compound and theophylline were orally administered to the mice and then the mice were out in an acrylic test cage (length 26 × width 45 × height 25 cm). The amount of locomotor activity of each mouse was measured with Automex II (manufactured by Columbus) for 3 hours after the administration. Test of significance between the control group and the test compound-administered group was performed by the Student's t-test, and enhancement of the locomotor activity was judged. Furthermore, the minimum effective dose showing a significant difference was determined.

Adenosine A₂ receptor = Adenosine A₂ receptor (Rattus norvegicus, UniProt P30543); test: Adenosine A2 receptor binding test (3H-NECA binding); settings: for Ratio of Affinity with Receptor (A2 /A1 ): A2 (rat corpus striatum) versus A1 (guinea pig cerebrum); for inhibition at 100 µM: read-out: A2 Receptor Inhibition (%) 10^-4 M; for inhibition at 10 µM: read-out: A2 Receptor Inhibition (%) 10^-5 M
Chain of Adenosine A₂ receptor (P30543 whole entry): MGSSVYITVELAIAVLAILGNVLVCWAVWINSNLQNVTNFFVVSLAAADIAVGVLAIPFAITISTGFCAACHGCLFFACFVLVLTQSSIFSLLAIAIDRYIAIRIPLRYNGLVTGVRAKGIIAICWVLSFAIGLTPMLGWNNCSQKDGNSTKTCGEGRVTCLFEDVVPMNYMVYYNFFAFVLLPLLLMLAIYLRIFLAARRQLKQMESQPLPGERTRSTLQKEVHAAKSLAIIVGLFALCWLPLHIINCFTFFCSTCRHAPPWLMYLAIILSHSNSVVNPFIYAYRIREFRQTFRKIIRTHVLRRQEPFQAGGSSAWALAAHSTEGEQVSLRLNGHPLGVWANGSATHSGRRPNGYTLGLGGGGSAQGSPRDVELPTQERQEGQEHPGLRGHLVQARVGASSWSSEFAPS

Adenosine A₁ receptor = biological target: T1, Adenosine A₁ receptor (Cavia porcellus, UniProt P47745); test: Adenosine A1 receptor binding test (3H-CHA binding); settings: for inhibition at 100 µM: read-out: A1 Receptor Inhibition (%) 10^-4 M; for inhibition at 10 µM: read-out: A1 Receptor Inhibition (%) 10^-5 M
T1 sequence (P47745 1-326): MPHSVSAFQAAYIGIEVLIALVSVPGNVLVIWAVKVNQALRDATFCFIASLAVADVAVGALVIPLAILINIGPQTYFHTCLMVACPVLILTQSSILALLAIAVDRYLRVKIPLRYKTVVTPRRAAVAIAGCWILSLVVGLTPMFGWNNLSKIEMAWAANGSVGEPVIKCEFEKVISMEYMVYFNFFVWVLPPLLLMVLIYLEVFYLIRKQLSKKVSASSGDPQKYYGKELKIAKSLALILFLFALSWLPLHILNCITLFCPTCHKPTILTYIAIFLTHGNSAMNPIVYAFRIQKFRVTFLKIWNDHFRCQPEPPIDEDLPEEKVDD

COc1cc(/C=C/c2nc3c(c(=O)n(C)c(=O)n3C)n2C)cc(OC)c1OC [Comparative Compound X, 1,3,7-trimethyl-8-[(E)-3,4,5-trimethoxystyryl]xanthine, reference compound] was tested, and the inhibition at 100 µM (calvaria) was 55%, the “Ca Concentration (mg/dl) (n = 6, mean +/- S.E.M.)” value (calvaria) was 10.32 ± 0.13 mg/dL and the “bone absorption by PTH (result in words)” value (calvaria) was “significantly inhibited bone absorption by PTH”.

CCCn1c(=O)c2nc(/C=C/c3ccccc3)[nH]c2n(CCC)c1=O [Compound 1, 1,3-Dipropyl-8-(E)-styrylxanthine] was tested, and the “MLD” value (dd male mice) was over 300 mg/kg.

With CCCn1c(=O)c2c(nc(/C=C/c3ccccc3)n2C)n(CCC)c1=O [Compound 2, 1,3-Dipropyl-7-methyl-8-(E)-styrylxanthine] the minimal effective dose (ddY male mice) was 1.25 mg/kg, the “Ratio of Affinity with Receptor (A2 /A1 )” value (from here on “Ratio of Affinity”) (Adenosine A₂ receptor) was 52 and the inhibition at 100 µM (Adenosine A₂ receptor) was 96%. It also gave an inhibition at 10 µM (Adenosine A₂ receptor) of 95%, a Ki (Adenosine A₁ receptor) of 1.4 µM and an inhibition at 100 µM (Adenosine A₁ receptor) of 82%. It also gave an inhibition at 10 µM (Adenosine A₁ receptor) of 64%.

In the case of CCCn1c(=O)c2nc(/C(C)=C/c3ccccc3)[nH]c2n(CCC)c1=O [Compound 3, 1,3-Dipropyl-8-[(E)-α-methylstyryl]xanthine], the “MLD” value (dd male mice) is reported as over 300 mg/kg.

For CCCn1c(=O)c2c(nc(/C(C)=C/c3ccccc3)n2C)n(CCC)c1=O [Compound 4, 1,3-Dipropyl-7-methyl-8-[(E)-α-methylstyryl]xanthine], the “MLD” value (dd male mice) was over 300 mg/kg.

CCCn1c(=O)c2nc(/C=C/c3ccc(Cl)cc3)[nH]c2n(CCC)c1=O [Compound 5, 8-[(E)-4-Chlorostyryl]-1,3-dipropylxanthine] was tested, and the “MLD” value (dd male mice) was over 300 mg/kg.

With CCCn1c(=O)c2c(nc(/C=C/c3ccc(Cl)cc3)n2C)n(CCC)c1=O [Compound 6, 8-[(E)-4-Chlorostyryl]-7-methyl-1,3-dipropylxanthine] the “MLD” value (dd male mice) was over 300 mg/kg.

In the case of CCCn1c(=O)c2nc(/C=C/c3ccc(Cl)c(Cl)c3)[nH]c2n(CCC)c1=O [Compound 7, 8-[(E)-3,4-Dichlorostyryl]-1,3-dipropylxanthine], the “MLD” value (dd male mice) is reported as over 300 mg/kg.

For CCCn1c(=O)c2c(nc(/C=C/c3ccc(Cl)c(Cl)c3)n2C)n(CCC)c1=O [Compound 8, 8-[(E)-3,4-Dichlorostyryl]-1,3-dipropyl-7-methylxanthine], the “MLD” value (dd male mice) was over 300 mg/kg.

For CCCn1c(=O)c2nc(/C=C/c3ccc(OC)cc3)[nH]c2n(CCC)c1=O [Compound 9, 1,3-Dipropyl-8-[(E)-4-methoxystyryl]xanthine], the “MLD” value (dd male mice) was over 300 mg/kg.

With CCCn1c(=O)c2c(nc(/C=C/c3ccc(OC)cc3)n2C)n(CCC)c1=O [Compound 10, 1,3-Dipropyl-8-[(E)-4-methoxystyryl]-7-methylxanthine] the “MLD” value (dd male mice) was over 300 mg/kg, the “Ratio of Affinity” value (Adenosine A₂ receptor) was 51 and the inhibition at 100 µM (Adenosine A₂ receptor) was 95%. The inhibition at 10 µM (Adenosine A₂ receptor) was 95%, the Ki (Adenosine A₁ receptor) was 2 µM and the inhibition at 100 µM (Adenosine A₁ receptor) was 86%. It also gave an inhibition at 10 µM (Adenosine A₁ receptor) of 65%.

For CCCn1c(=O)c2nc(/C=C/c3ccc(OC)c(OC)c3)[nH]c2n(CCC)c1=O [Compound 11, 8-[(E)-3,4-Dimethoxystyryl]-1,3-dipropylxanthine], the “MLD” value (dd male mice) was over 300 mg/kg.

CCCn1c(=O)c2c(nc(/C=C/c3ccc(OC)c(OC)c3)n2C)n(CCC)c1=O [Compound 12, 8-[(E)-3,4-Dimethoxystyryl]-1,3-dipropyl-7-methylxanthine] was tested, and the “MLD” value (dd male mice) was over 300 mg/kg, the minimal effective dose (ddY male mice) was 0.63 mg/kg and the inhibition at 100 µM (Adenosine A₂ receptor) was 97%. For the same compound, the inhibition at 10 µM (Adenosine A₂ receptor) was 96%, the Ki (Adenosine A₁ receptor) was 3.1 µM and the inhibition at 100 µM (Adenosine A₁ receptor) was 74%. For the same compound, the inhibition at 10 µM (Adenosine A₁ receptor) was 61%.

CCCn1c(=O)c2nc(/C=C/c3cc(OC)c(OC)c(OC)c3)[nH]c2n(CCC)c1=O [Compound 13, 1,3-Dipropyl-8-[(E)-3,4,5-trimethoxystyryl]xanthine] was tested, and the “MLD” value (dd male mice) was over 300 mg/kg.

For CCCn1c(=O)c2c(nc(/C=C/c3cc(OC)c(OC)c(OC)c3)n2C)n(CCC)c1=O [Compound 14, 1,3-Dipropyl-7-methyl-8-[(E)-3,4,5-trimethoxystyryl]xanthine], the “MLD” value (dd male mice) was over 300 mg/kg, the minimal effective dose (ddY male mice) was 10 mg/kg and the “Ratio of Affinity” value (Adenosine A₂ receptor) was 4600. The inhibition at 100 µM (Adenosine A₂ receptor) was 92%, the inhibition at 10 µM (Adenosine A₂ receptor) was 94% and the inhibition at 100 µM (calvaria) was 119%. For the same compound, the “bone absorption inhibition rate compared with Comparative Compound X (result in words)” value (calvaria) was “significantly higher than that of Comparative Compound X”, the “Ca Concentration (mg/dl) (n = 6, mean +/- S.E.M.)” value (calvaria) was 7.66 ± 0.08 ++ mg/dl and the “bone absorption by PTH (result in words)” value (calvaria) was “significantly inhibited bone absorption by PTH”. For the same compound, the Ki (Adenosine A₁ receptor) was 65 µM, the inhibition at 100 µM (Adenosine A₁ receptor) was 50% and the inhibition at 10 µM (Adenosine A₁ receptor) was 30%.

With CCCn1c(=O)c2[nH]c(/C=C/c3ccco3)nc2n(CCC)c1=O [Compound 15, 1,3-Dipropyl-8-[2-(E)-(2-furyl)vinyl]xanthine] the “MLD” value (dd male mice) was over 300 mg/kg.

CCCn1c(=O)c2[nH]c(/C=C/c3cccs3)nc2n(CCC)c1=O [Compound 17, 1,3-Dipropyl-8-[2-(E)-(2-thienyl)vinyl]xanthine] was tested, and the “MLD” value (dd male mice) was over 300 mg/kg.

For CCCn1c(=O)c2c(nc(/C=C/c3cccs3)n2C)n(CCC)c1=O [Compound 18, 1,3-Dipropyl-7-methyl-8-[2-(E)-(2-thienyl)vinyl]xanthine], the “MLD” value (dd male mice) was over 300 mg/kg.

In the case of C=CCn1c(=O)c2c(nc(/C=C/c3cc(OC)c(OC)c(OC)c3)n2C)n(CC=C)c1=O [Compound 24, 1,3-Diallyl-7-methyl-8-[(E)-3,4,5-trimethoxystyryl]xanthine], the inhibition at 100 µM (Adenosine A₂ receptor) is reported as 96%, the inhibition at 10 µM (Adenosine A₂ receptor) is reported as 93% and the Ki (Adenosine A₁ receptor) is reported as over 100 µM. For the same compound, the inhibition at 100 µM (Adenosine A₁ receptor) was 31% and the inhibition at 10 µM (Adenosine A₁ receptor) was 31%.

Work on Cn1c(=O)c2[nH]cnc2n(C)c1=O [Theophylline, theophylline, reference compound] yielded a minimal effective dose (ddY male mice) of 20 mg/kg.
